Experimental data as given in patent US20230016424A1, “HYBRID AMIDE DERIVATIVES OF AMPHOTERICIN B” (The Board of Trustees of the University of Illinois, priority 2019, published 2023).
In brackets after ≈: the same amount, converted by molar mass. Several values for one entry are separate records, joined by “and”; a condition that tells them apart may be missing. Equal entries are not always repeated.

Experiments:
[1] = Liver Microsome stability (In Vitro Metabolism); assay type: in vitro ADME; details: for Remaining (T = NCF60 min): no cofactor 60 min
Procedure, shortened: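 Compound at 10 uM working solution (50 mM potassium phosphate, 9% MeOH, 1% DMSO) incubated at 37 C with liver microsomes (0.625 mg/ml working) and NADPH regenerating system. Sampled at 5–60 min plus a no-cofactor 60 min control. Reactions quenched with cold ACN containing internal standards; remaining compound measured by LCMS.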

CD-1 mice = assay type: in vivo; details: for Mouse single IV injection: mortality: 40 mpk
Method: Procedure: The experiment was performed using the commercial Fungizone and Ambisome. Compound BA was directly used after purification without any special treatment. […] . Female CD-1 mice were (3 per group; body weight 30 g each) injected with the drugs/compounds and monitored for 24 h for death or distress signs.
Compound BA was directly used after purification without any special treatment. […] . Female CD-1 mice were (3 per group; body weight 30 g each) injected with the drugs/compounds and monitored for 24 h for death or distress signs.

C. albicans SN250 = experiment: MIC; assay type: cell-based, Candida albicans
[2] = In vivo mouse pharmacokinetics, IV; set-up: species or system CD-1 mice
Method: The experiment was performed using the compounds synthesized in lab and purified by preparative HPLC (>91%). All the compounds were dissolved in D5W (5% dextrose in water) at for IV injection. Female CD-1 mice were (3 per group; body weight approx. 30 g each) injected with the compounds (as per planned dosage) and the blood samples were collected at different time points and the compound content was analysed using the following procedure.
An aliquot of […], IS solution (100 ng/mL Labetalol & 100 ng/mL Tolbutamide in ACN), the mixture was vortex-mixed well and centrifuged at 3900 rpm for 10 min, 4[…]. An aliquot of 90 μL supernatant was transferred to sample plate and mixed with 60 μL water, then the plate was shaken at 800 rpm for 10 min. 15.0 μL supernatant was injected for LC-MS/MS analysis.

CYP2D6 = CYP2D6 (Homo sapiens, UniProt P10635); experiment: CYP Inhibition; details: for P450 2D6 % Inhibition: 10 um, human liver microsome
Sequence of CYP2D6 (P10635 whole entry): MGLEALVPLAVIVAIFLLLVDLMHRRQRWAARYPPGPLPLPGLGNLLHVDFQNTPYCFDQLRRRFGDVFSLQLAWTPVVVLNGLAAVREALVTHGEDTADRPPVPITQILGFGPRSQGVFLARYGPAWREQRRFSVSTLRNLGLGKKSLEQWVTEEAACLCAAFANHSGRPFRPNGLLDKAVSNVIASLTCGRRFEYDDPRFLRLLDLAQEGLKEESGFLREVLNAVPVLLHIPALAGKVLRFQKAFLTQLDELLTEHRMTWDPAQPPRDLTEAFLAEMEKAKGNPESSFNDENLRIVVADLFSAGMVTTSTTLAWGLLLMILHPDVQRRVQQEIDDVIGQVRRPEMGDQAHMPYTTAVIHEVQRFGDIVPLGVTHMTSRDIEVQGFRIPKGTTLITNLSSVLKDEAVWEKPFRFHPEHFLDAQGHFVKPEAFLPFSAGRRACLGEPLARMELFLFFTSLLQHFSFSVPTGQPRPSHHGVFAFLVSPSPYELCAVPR
Method: (§1) The working solutions of the test compounds and the standard inhibitors were prepared in DMSO (100× final concentration). 20 ul of substrate solution (5 in 1 cocktail) was added to the wells followed by 2 ul test compound solution was added. 158 ul of human liver microsome (HLM) was added to all the wells of the incubated plate and warmed to 37° C. for 10 mins. 20 ul of NADPH cofactor solution was then added to all the wells of incubated plate and incubated at 37° C. for 10 mins. At the time point the reaction was quenched by adding 400 uL of cold stop solution. The samples were centrifuged at 4000 rpm for 20 mins to precipitate protein. 100 ul supernatant was diluted with 100 ul of ultra pure water and analyzed using LCMS.

CYP2C9 = CYP2C9 (Homo sapiens, UniProt P11712); experiment: CYP Inhibition; details: for P450 2C9 % Inhibition: 10 um, human liver microsome
Sequence of CYP2C9 (P11712 whole entry): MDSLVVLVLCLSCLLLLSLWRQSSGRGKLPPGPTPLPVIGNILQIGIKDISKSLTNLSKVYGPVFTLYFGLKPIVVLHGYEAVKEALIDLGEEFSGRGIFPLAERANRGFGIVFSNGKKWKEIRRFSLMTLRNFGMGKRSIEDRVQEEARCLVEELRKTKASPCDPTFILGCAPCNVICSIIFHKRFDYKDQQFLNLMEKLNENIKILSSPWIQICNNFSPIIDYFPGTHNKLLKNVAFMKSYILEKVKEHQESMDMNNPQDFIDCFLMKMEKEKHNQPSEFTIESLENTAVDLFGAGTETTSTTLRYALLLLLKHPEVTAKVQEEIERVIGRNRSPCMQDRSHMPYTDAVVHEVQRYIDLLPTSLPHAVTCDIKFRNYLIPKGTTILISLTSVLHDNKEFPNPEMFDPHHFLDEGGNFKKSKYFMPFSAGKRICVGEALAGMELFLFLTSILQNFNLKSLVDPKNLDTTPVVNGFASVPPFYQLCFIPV
Method: as §1

KIM1, LCN2, TIMP1, SPP1 = experiment: Biomarkers of renal injury by RTPCR after IV injection; set-up: species or system mice; details: mouse, in vivo
C. glabrata = experiment: MIC; assay type: cell-based
A. fumigatus 1163 = experiment: MIC; assay type: cell-based
C. tropicalis = experiment: MIC; assay type: cell-based
C. krusei = experiment: MIC; assay type: cell-based

CC1C=CC=CC=CC=CC=CC=CC=CC(OC2OC(C)C(O)C(N)C2O)CC2OC(O)(CC(O)CC(O)C(O)CCC(O)CC(O)CC(=O)OC(C)C(C)C1O)CC(O)C2C(=O)NCCO (stereo not drawn) [Compound BA]
CL ([1]; Dog liver microsomes): <9.6 µL/min/mg
Remaining (T = 60 min) ([1]; Dog liver microsomes): 111%
T1/2 ([1]; Dog liver microsomes): >2.42 h
CL ([1]; Human liver microsomes): <9.6 µL/min/mg
Remaining (T = 60 min) ([1]; Human liver microsomes): 99.9%
T1/2 ([1]; Human liver microsomes): >2.42 h
CL ([1]; Monkey liver microsomes): <9.6 µL/min/mg
Remaining (T = 60 min) ([1]; Monkey liver microsomes): 108%
T1/2 ([1]; Monkey liver microsomes): >2.42 h
CL ([1]; Mouse liver microsomes): <9.6 µL/min/mg
Remaining (T = 60 min) ([1]; Mouse liver microsomes): 97.7%
T1/2 ([1]; Mouse liver microsomes): >2.42 h
CL ([1]; Rat liver microsomes): <9.6 µL/min/mg
Remaining (T = 60 min) ([1]; Rat liver microsomes): 115%
T1/2 ([1]; Rat liver microsomes): >2.42 h
Number of Mice Alive (CD-1 mice; 40 mg/kg IV, 24 h): 3/3
Number of Mice Distress-Fee (CD-1 mice; 40 mg/kg IV, 24 h): 3/3
Mouse single IV injection: mortality (CD-1 mice): 0/4
Tolerability in mice (CD-1 mice; IV in D5W): Well-Tolerated
MIC C. albicans SN250 (C. albicans SN250): 0.25 µM (≈ 0.242 µg/mL)
In vivo PK AUC0-inf ([2]; 1 mg/kg IV): 7488] ng*hr/mL
In vivo PK Cl ([2]; 1 mg/kg IV): 2.24 mL/min/kg
In vivo PK T1/2 ([2]; 1 mg/kg IV): 6.87 h
In vivo PK AUC0-inf ([2]; 5 mg/kg IV): 26694 ng·h/mL
In vivo PK Cl ([2]; 5 mg/kg IV): 3.13 mL/min/kg
In vivo PK T1/2 ([2]; 5 mg/kg IV): 8.00 h
P450 2D6 % Inhibition (CYP2D6): 2.74% and 2.77%
P450 2C9 % Inhibition (CYP2C9): 18.7%

C[C@@H]1[C@H](O)[C@@H](C)/C=C/C=C/C=C/C=C/C=C/C=C/C=C/[C@H](OC2O[C@H](C)[C@@H](O)[C@H](N)[C@@H]2O)C[C@@H]2O[C@](O)(C[C@@H](O)C[C@@H](O)[C@H](O)CC[C@@H](O)C[C@@H](O)CC(=O)O[C@H]1C)C[C@H](O)[C@H]2C(=O)O (stereo partly drawn) [AmB, Amphotericin B]
CLint scaled at 1 µM ([1]; Dog liver microsomes): < 14 mL/min/kg
Remaining (T = 60 min) ([1]; Dog liver microsomes): 106%
half-life at 1 µM ([1]; Dog liver microsomes): > 2.42 h
microsomal CLint at 1 µM ([1]; Dog liver microsomes): < 9.6 µL/min/mg
Remaining (T = NCF60 min) ([1]; Dog liver microsomes): 94.7%
CLint scaled at 1 µM ([1]; Human liver microsomes): < 8.6 mL/min/kg
Remaining (T = 60 min) ([1]; Human liver microsomes): 100%
half-life at 1 µM ([1]; Human liver microsomes): > 2.42 h
microsomal CLint at 1 µM ([1]; Human liver microsomes): < 9.6 µL/min/mg
Remaining (T = NCF60 min) ([1]; Human liver microsomes): 104%
CLint scaled at 1 µM ([1]; Monkey liver microsomes): < 13 mL/min/kg
Remaining (T = 60 min) ([1]; Monkey liver microsomes): 142%
half-life at 1 µM ([1]; Monkey liver microsomes): > 2.42 h
microsomal CLint at 1 µM ([1]; Monkey liver microsomes): < 9.6 µL/min/mg
Remaining (T = NCF60 min) ([1]; Monkey liver microsomes): 105%
CLint scaled at 1 µM ([1]; Mouse liver microsomes): < 38 mL/min/kg
Remaining (T = 60 min) ([1]; Mouse liver microsomes): 106%
half-life at 1 µM ([1]; Mouse liver microsomes): > 2.42 h
microsomal CLint at 1 µM ([1]; Mouse liver microsomes): < 9.6 µL/min/mg
Remaining (T = NCF60 min) ([1]; Mouse liver microsomes): 93.1%
CLint scaled at 1 µM ([1]; Rat liver microsomes): < 17 mL/min/kg
Remaining (T = 60 min) ([1]; Rat liver microsomes): 121%
half-life at 1 µM ([1]; Rat liver microsomes): > 2.42 h
microsomal CLint at 1 µM ([1]; Rat liver microsomes): < 9.6 µL/min/mg
Remaining (T = NCF60 min) ([1]; Rat liver microsomes): 111%
Mouse single IV injection: mortality (CD-1 mice): 0/3
Renal toxicity biomarkers KIM1, LCN2, TIMP1, SPP1 (KIM1, LCN2, TIMP1, SPP1): elevated
inhibition at 10 min, 10 µM (CYP2D6; human, human liver microsomes, probe 5 in 1 substrate cocktail (substrates not named)): 2.3%
inhibition at 10 min, 10 µM (CYP2C9; human, human liver microsomes, probe 5 in 1 substrate cocktail): 4.1%

CC1C=CC=CC=CC=CC=CC=CC=CC(OC2OC(C)C(O)C(N)C2O)CC2OC(O)(CC(O)CC(O)C(O)CCC(O)CC(O)CC(=O)OC(C)C(C)C1O)CC(O)C2C(=O)NCCF (stereo not drawn) [Compound BM]
MIC C. glabrata (C. glabrata): 250 µM (≈ 242 µg/mL)
MIC A. fumigatus 1163 (A. fumigatus 1163): 1000 µM (≈ 969 µg/mL)
MIC C. tropicalis (C. tropicalis): 500 µM (≈ 485 µg/mL)
MIC C. krusei (C. krusei): 1000 µM (≈ 969 µg/mL)
P450 2D6 % Inhibition (CYP2D6): 2.1%
P450 2C9 % Inhibition (CYP2C9): 89.1%
